PubChem BioAssay AID2060910 (Molecular Pharmacology Branch, DTP, NCI, 2025)

System: 242566-281-R-J2-PDC complex spheroid viability
Assay: Anticancer human tumor 242566-281-R-J2-PDC patient-derived pancreatic carcinoma cell line growth inhibition [RAS]
Settings: for viability, T/C: stronger effect = lower value
Summary of the method: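 Tumour cells grown as complex spheroids with HUVEC endothelial cells and mesenchymal stem cells, treated with RAS pathway inhibitor combinations. Each agent spans half-log steps from near clinical Cmax, or 10 microM where Cmax is unknown.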

[1] = curve of first compound, second compound 0.000949 µM
[2] = curve of first compound, second compound 0.003 µM
[3] = curve of first compound, second compound 0.00949 µM
[4] = curve of first compound, second compound 0.03 µM
[5] = curve of first compound, second compound 0.0949 µM
[6] = curve of first compound, second compound 0.3 µM
[7] = second compound 0.000949 µM, first compound 0.0316 µM
[8] = second compound 0.000949 µM, first compound 0.1 µM
[9] = second compound 0.000949 µM, first compound 0.316 µM
[10] = second compound 0.000949 µM, first compound 1 µM
[11] = second compound 0.000949 µM, first compound 3.16 µM
[12] = second compound 0.000949 µM, first compound 10 µM
[13] = second compound 0.003 µM, first compound 0.0316 µM
[14] = second compound 0.003 µM, first compound 0.1 µM
[15] = second compound 0.003 µM, first compound 0.316 µM
[16] = second compound 0.003 µM, first compound 1 µM
[17] = second compound 0.003 µM, first compound 3.16 µM
[18] = second compound 0.003 µM, first compound 10 µM
[19] = second compound 0.00949 µM, first compound 0.0316 µM
[20] = second compound 0.00949 µM, first compound 0.1 µM
[21] = second compound 0.00949 µM, first compound 0.316 µM
[22] = second compound 0.00949 µM, first compound 1 µM
[23] = second compound 0.00949 µM, first compound 3.16 µM
[24] = second compound 0.00949 µM, first compound 10 µM
[25] = second compound 0.03 µM, first compound 0.0316 µM
[26] = second compound 0.03 µM, first compound 0.1 µM
[27] = second compound 0.03 µM, first compound 0.316 µM
[28] = second compound 0.03 µM, first compound 1 µM
[29] = second compound 0.03 µM, first compound 3.16 µM
[30] = second compound 0.03 µM, first compound 10 µM
[31] = second compound 0.0949 µM, first compound 0.0316 µM
[32] = second compound 0.0949 µM, first compound 0.1 µM
[33] = second compound 0.0949 µM, first compound 0.316 µM
[34] = second compound 0.0949 µM, first compound 1 µM
[35] = second compound 0.0949 µM, first compound 3.16 µM
[36] = second compound 0.0949 µM, first compound 10 µM
[37] = second compound 0.3 µM, first compound 0.0316 µM
[38] = second compound 0.3 µM, first compound 0.1 µM
[39] = second compound 0.3 µM, first compound 0.316 µM
[40] = second compound 0.3 µM, first compound 1 µM
[41] = second compound 0.3 µM, first compound 3.16 µM
[42] = second compound 0.3 µM, first compound 10 µM
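Note: spheroids exposed to compound for 7 days before readout.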
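Throughout, for viability, T/C: 100% = DMSO vehicle control wells.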

## CC1(C)CCC(Nc2ncc(C(F)(F)F)c(-c3c[nH]c4c(P(C)(C)=O)c(C#N)ccc34)n2)CN1 (stereo unspecified)
Compound 0.03 µM
  viability, T/C: 110% [middle of 4 runs]
Curve of compound
  IC50: > 300 nM

## NC1c2ccccc2OC12CCN(c1cnc3c(N4CCCc5ncccc54)n[nH]c3n1)CC2 (stereo unspecified) + CCn1c(-c2cc(N3CCN(C)CC3)cnc2C(C)OC)c2c3cc(ccc31)-c1csc(n1)CC(NC(=O)C1CC1C)C(=O)N1CCCC(N1)C(=O)OCC(C)(C)C2
[1]
  IC50: 50.8 nM
[2]
  IC50: < 31.6 nM
[3]
  IC50: < 31.6 nM
[4]
  IC50: < 31.6 nM
[5]
  IC50: < 31.6 nM
[6]
  IC50: < 31.6 nM
[7]
  viability, T/C: 58.2%
[8]
  viability, T/C: 40.6%
[9]
  viability, T/C: 20.6%
[10]
  viability, T/C: 24.9%
[11]
  viability, T/C: 21.2%
[12]
  viability, T/C: 8.53%
[13]
  viability, T/C: 42.9%
[14]
  viability, T/C: 26.4%
[15]
  viability, T/C: 18.9%
[16]
  viability, T/C: 21.3%
[17]
  viability, T/C: 18.4%
[18]
  viability, T/C: 6.57%
[19]
  viability, T/C: 31.6%
[20]
  viability, T/C: 19.2%
[21]
  viability, T/C: 18.1%
[22]
  viability, T/C: 15.8%
[23]
  viability, T/C: 13.4%
[24]
  viability, T/C: 7.23%
[25]
  viability, T/C: 23.1%
[26]
  viability, T/C: 18.1%
[27]
  viability, T/C: 15.7%
[28]
  viability, T/C: 15.2%
[29]
  viability, T/C: 12.8%
[30]
  viability, T/C: 7.77%
[31]
  viability, T/C: 20.1%
[32]
  viability, T/C: 16.8%
[33]
  viability, T/C: 14.8%
[34]
  viability, T/C: 13.6%
[35]
  viability, T/C: 11.8%
[36]
  viability, T/C: 7.6%
[37]
  viability, T/C: 15.6%
[38]
  viability, T/C: 15.4%
[39]
  viability, T/C: 14.4%
[40]
  viability, T/C: 10.6%
[41]
  viability, T/C: 9.17%
[42]
  viability, T/C: 4.89%

## C[C@@H](NC(=O)c1ncnc(N)c1Cl)c1ncc(C(=O)Nc2cc(C(F)(F)F)c(Cl)cn2)s1 + CCn1c(-c2cc(N3CCN(C)CC3)cnc2C(C)OC)c2c3cc(ccc31)-c1csc(n1)CC(NC(=O)C1CC1C)C(=O)N1CCCC(N1)C(=O)OCC(C)(C)C2
[1]
  IC50: > 10000 nM
[2]
  IC50: > 10000 nM
[3]
  IC50: > 10000 nM
[4]
  IC50: < 31.6 nM
[5]
  IC50: < 31.6 nM
[6]
  IC50: < 31.6 nM
[7]
  viability, T/C: 98.8%
[8]
  viability, T/C: 114%
[9]
  viability, T/C: 82.7%
[10]
  viability, T/C: 97.9%
[11]
  viability, T/C: 106%
[12]
  viability, T/C: 76.4%
[13]
  viability, T/C: 89.8%
[14]
  viability, T/C: 73.5%
[15]
  viability, T/C: 71.6%
[16]
  viability, T/C: 79.2%
[17]
  viability, T/C: 92.7%
[18]
  viability, T/C: 62.3%
[19]
  viability, T/C: 54%
[20]
  viability, T/C: 49.3%
[21]
  viability, T/C: 54.7%
[22]
  viability, T/C: 63.3%
[23]
  viability, T/C: 58.9%
[24]
  viability, T/C: 52.7%
[25]
  viability, T/C: 35.3%
[26]
  viability, T/C: 35.2%
[27]
  viability, T/C: 39.9%
[28]
  viability, T/C: 35.4%
[29]
  viability, T/C: 29.8%
[30]
  viability, T/C: 40.1%
[31]
  viability, T/C: 22.9%
[32]
  viability, T/C: 24.8%
[33]
  viability, T/C: 25.7%
[34]
  viability, T/C: 27.2%
[35]
  viability, T/C: 23.6%
[36]
  viability, T/C: 26.3%
[37]
  viability, T/C: 21.2%
[38]
  viability, T/C: 23.5%
[39]
  viability, T/C: 22.2%
[40]
  viability, T/C: 19.9%
[41]
  viability, T/C: 21.9%
[42]
  viability, T/C: 22.6%
